Data from US7897620B2, “Methods of using anti-inflammatory compounds” (Cambridge Enterprise Limited, priority 2007, dated 2011).

Test system: lung leukocyte recruitment and T-helper cell polarisation
Experiment: Ovalbumin-induced lung inflammation model of asthma (BAL leukocyte count, splenocyte Th1/Th2 ratio)
Format: in vivo, Brown Norway rat
Conditions: rat, 0.3 mg/kg daily oral
Protocol: Adult Brown Norway rats (200-300 g body weight; n=10 per group) were sensitised by a single intraperitoneal injection of 0.1 mg Ovalbumin on day 0. Each rat then received an intratracheal challenge with a solution of 1% ovalbumin (w/v) on day 8, and with 2% ovalbumin (w/v) on days 15, 18 and 21. The animals were then sacrificed 3 hours after the final challenge on day 21. Note that ovalbumin (Sigma; purest available grade) was made endotoxin-free by passage over EndoTrap™ Red columns (purchased from Cambrex; used in accordance with the manufacturer's instructions), and the endotoxin level was confirmed as <5 EU/mg protein using the LAL assay (QCL-1000™; Cambrex; performed in accordance with the manufacturer's instructions; 1 mg of standard endotoxin contains ˜900,000 EU/mg). […]
On sacrifice, total lung leukocyate recruitment was assessed by performing a broncheoalveolar lavage (BAL) using 4 lots of 3 ml sterile phosphate-buffered saline introduced through a tracheal cannula. For each animal, the BAL washes were combined, and the total cell population counted (using a haemocytometer). […]
The spleen was also removed from each […] and placed in RPMI+10% FCS+antibiotics. […] The resulting cell suspension was then centrifuged (328 g; 5 mins) and washed in RPMI+10% FCS+antibiotics, before being resuspended in fresh media and counted using a haemocytometer. […]

Compound: CC(C)(C)C(=O)N[C@H]1CCCNC1=O [Compound (I′), 3-(2′,2′-dimethylpropanoylamino)-tetrahydropyridin-2-one]
- Th2 polarisation (Th1/Th2 ratio of CD4+ splenocytes): completely abolishes the Th2 polarisation
